According to patent US20220389061A1, “IMMUNOMODULATORS” (priority 2019, published 2022):
Starred links: 1 amine or outer side, 2 acyl side, 3 side chain; linkers in the order of their positions; H or OH if unused. Positions of bridges follow the written chain, without caps; N, C: chain ends. Non-standard residues stand in square brackets, D forms with d. Residues, ends and D or L forms follow the SMILES beside them. Groups on a side chain read outwards from the residue. *: point of attachment. Trp(1-CH2CO2Me) = COC(=O)Cn1cc(C[C@H](N)C(=O)O)c2ccccc21; Trp(1-CH2COOH) = N[C@@H](Cc1cn(CC(=O)O)c2ccccc12)C(=O)O; Benzoyl(4-F,3-CF3) = O=C(c1ccc(F)c(C(F)(F)F)c1)*; X65 = CC(C)(C)OC(=O)Nc1ccc(NC(=S)*)cc1; X95 = O=[N+]([O-])c1cccc(NC(=S)*)c1; X1 = S=C(Nc1ccc2c(c1)Cc1ccccc1-2)*; 2Naphthoyl = O=C(c1ccc2ccccc2c1)*; Hyp = O=C(O)[C@@H]1C[C@@H](O)CN1; X80 = S=C(Nc1ccc(-n2cccn2)cc1)*; X43 = S=C(Nc1ccccc1Oc1ccccc1)*; X29 = c1ccc(Oc2ccc(N*)cc2)cc1; NMeNle = CCCC[C@H](NC)C(=O)O; X7 = S=C(Nc1ccc2cc[nH]c2c1)*; X54 = S=C(Nc1cccc2ncccc12)*; X90 = Fc1cc(F)c(N*)c(F)c1; NMeA = CN[C@@H](C)C(=O)O; Dab = NCC[C@H](N)C(=O)O; Dap = NC[C@H](N)C(=O)O; X77 = Clc1cccc(N*)c1Cl; X51 = Cc1cccc(Cl)c1N*; CO = O=C([*:1])[*:2]; Bz = O=C(c1ccccc1)*

Biological target: T1, PD-1/PD-L1 (Homo sapiens, UniProt Q9NZQ7)
T1 construct: TVMV protease site linker (C); made in house; host or cells: HEK293T cells
T1 sequence (Q9NZQ7 18-239): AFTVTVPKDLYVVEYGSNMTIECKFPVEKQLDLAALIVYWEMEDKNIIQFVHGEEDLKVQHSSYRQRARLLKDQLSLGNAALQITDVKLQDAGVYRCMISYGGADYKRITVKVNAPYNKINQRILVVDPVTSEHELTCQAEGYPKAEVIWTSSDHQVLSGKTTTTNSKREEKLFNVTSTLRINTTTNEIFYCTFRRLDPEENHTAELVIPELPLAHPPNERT
Assay: PD-1/PD-L1 Homogenous Time-Resolved Fluorescence (HTRF) binding assay
Settings: not given
How it was run: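 HTRF read-out using europium cryptate anti-Ig (1 nM) and APC anti-His (20 nM) on extracellular-domain fusion proteins in dPBS/0.1% BSA/0.05% Tween-20. Inhibitor first incubated 15 min with 10 nM PD-L1-His, followed by 20 nM PD-1-Ig for another 15 min.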

SMILES | IC50
CCCC[C@H]1C(=O)N(C)[C@@H](CCCC)C(=O)N[C@@H](CC(C)C)C(=O)N[C@H](C(=O)NCC(N)=O)CSCC(=O)N[C@@H](Cc2ccc(O)cc2)C(=O)N(C)[C@@H](C)C(=O)N[C@@H](CC(N)=O)C(=O)N2CCC[C@H]2C(=O)N[C@@H](CNC(=O)c2ccccc2)C(=O)N[C@@H](CC(C)C)C(=O)N2C[C@H](O)C[C@H]2C(=O)N[C@@H](Cc2c[nH]c3ccccc23)C(=O)N[C@@H](CCNC(=O)c2ccccc2)C(=O)N[C@@H](Cc2cn(CC(=O)OC)c3ccccc23)C(=O)N1C [Example 1006] ({CH2CO}-Y[NMeA]NP[Dap](Bz)L[Hyp]W[Dab](Bz)[Trp(1-CH2CO2Me)][NMeNle][NMeNle]LCG-NH2; thioether N-14) | 0.2 nM
CCCC[C@H]1C(=O)N(C)[C@@H](CCCC)C(=O)N[C@@H](CC(C)C)C(=O)N[C@H](C(=O)NCC(N)=O)CSCC(=O)N[C@@H](Cc2ccc(O)cc2)C(=O)N(C)[C@@H](C)C(=O)N[C@@H](CC(N)=O)C(=O)N2CCC[C@H]2C(=O)N[C@@H](CNC(=O)Nc2cccc(Cl)c2Cl)C(=O)N[C@@H](CC(C)C)C(=O)N2C[C@H](O)C[C@H]2C(=O)N[C@@H](Cc2c[nH]c3ccccc23)C(=O)N[C@@H](CCN)C(=O)N[C@@H](Cc2cn(CC(=O)O)c3ccccc23)C(=O)N1C [Example 1071] ({CH2CO}-Y[NMeA]NP[Dap]([CO-X77])L[Hyp]W[Dab][Trp(1-CH2COOH)][NMeNle][NMeNle]LCG-NH2; thioether N-14) | 2.3 nM

Same assay, conditions: PD-L1-His 10 nM pre-incubated with inhibitor, PD-1-Ig 20 nM; read-out: HTRF IC50

IC50 | SMILES
3.8 nM | CCCC[C@H]1C(=O)N(C)[C@@H](CCCC)C(=O)N[C@@H](CC(C)C)C(=O)N[C@H](C(=O)NCC(N)=O)CSCC(=O)N[C@@H](Cc2ccc(O)cc2)C(=O)N(C)[C@@H](C)C(=O)N[C@@H](CC(N)=O)C(=O)N2CCC[C@H]2C(=O)N[C@@H](CNC(=S)Nc2cccc3ncccc23)C(=O)N[C@@H](CC(C)C)C(=O)N2C[C@H](O)C[C@H]2C(=O)N[C@@H](Cc2c[nH]c3ccccc23)C(=O)N[C@@H](CCN)C(=O)N[C@@H](Cc2cn(CC(=O)O)c3ccccc23)C(=O)N1C [Example 3018] ({CH2CO}-Y[NMeA]NP[Dap](X54)L[Hyp]W[Dab][Trp(1-CH2COOH)][NMeNle][NMeNle]LCG-NH2; thioether N-14)
2.8 nM | CCCC[C@H]1C(=O)N(C)[C@@H](CCCC)C(=O)N[C@@H](CC(C)C)C(=O)N[C@H](C(=O)NCC(N)=O)CSCC(=O)N[C@@H](Cc2ccc(O)cc2)C(=O)N(C)[C@@H](C)C(=O)N[C@@H](CC(N)=O)C(=O)N2CCC[C@H]2C(=O)N[C@@H](CNC(=S)Nc2cccc([N+](=O)[O-])c2)C(=O)N[C@@H](CC(C)C)C(=O)N2C[C@H](O)C[C@H]2C(=O)N[C@@H](Cc2c[nH]c3ccccc23)C(=O)N[C@@H](CCN)C(=O)N[C@@H](Cc2cn(CC(=O)O)c3ccccc23)C(=O)N1C [Example 1037] ({CH2CO}-Y[NMeA]NP[Dap](X95)L[Hyp]W[Dab][Trp(1-CH2COOH)][NMeNle][NMeNle]LCG-NH2; thioether N-14)
4.9 nM | CCCC[C@H]1C(=O)N(C)[C@@H](CCCC)C(=O)N[C@@H](CC(C)C)C(=O)N[C@H](C(=O)NCC(N)=O)CSCC(=O)N[C@@H](Cc2ccc(O)cc2)C(=O)N(C)[C@@H](C)C(=O)N[C@@H](CC(N)=O)C(=O)N2CCC[C@H]2C(=O)N[C@@H](CNC(=S)Nc2ccccc2Oc2ccccc2)C(=O)N[C@@H](CC(C)C)C(=O)N2C[C@H](O)C[C@H]2C(=O)N[C@@H](Cc2c[nH]c3ccccc23)C(=O)N[C@@H](CCN)C(=O)N[C@@H](Cc2cn(CC(=O)O)c3ccccc23)C(=O)N1C [Example 1135] ({CH2CO}-Y[NMeA]NP[Dap](X43)L[Hyp]W[Dab][Trp(1-CH2COOH)][NMeNle][NMeNle]LCG-NH2; thioether N-14)
32 nM | CCCC[C@H]1C(=O)N(C)[C@@H](CCCC)C(=O)N[C@@H](CC(C)C)C(=O)N[C@H](C(=O)NCC(N)=O)CSCC(=O)N[C@@H](Cc2ccc(O)cc2)C(=O)N(C)[C@@H](C)C(=O)N[C@@H](CC(N)=O)C(=O)N2CCC[C@H]2C(=O)N[C@@H](CNC(=O)c2ccc(F)c(C(F)(F)F)c2)C(=O)N[C@@H](CC(C)C)C(=O)N2C[C@H](O)C[C@H]2C(=O)N[C@@H](Cc2c[nH]c3ccccc23)C(=O)N[C@@H](CCNC(=O)c2ccc(F)c(C(F)(F)F)c2)C(=O)N[C@@H](Cc2cn(CC(=O)OC)c3ccccc23)C(=O)N1C [Example 1007] ({CH2CO}-Y[NMeA]NP[Dap](Benzoyl(4-F,3-CF3))L[Hyp]W[Dab](Benzoyl(4-F,3-CF3))[Trp(1-CH2CO2Me)][NMeNle][NMeNle]LCG-NH2; thioether N-14)

More lines, now with the values behind:

SMILES | IC50
CCCC[C@H]1C(=O)N(C)[C@@H](CCCC)C(=O)N[C@@H](CC(C)C)C(=O)N[C@H](C(=O)NCC(N)=O)CSCC(=O)N[C@@H](Cc2ccc(O)cc2)C(=O)N(C)[C@@H](C)C(=O)N[C@@H](CC(N)=O)C(=O)N2CCC[C@H]2C(=O)N[C@@H](CNC(=S)Nc2ccc(-n3cccn3)cc2)C(=O)N[C@@H](CC(C)C)C(=O)N2C[C@H](O)C[C@H]2C(=O)N[C@@H](Cc2c[nH]c3ccccc23)C(=O)N[C@@H](CCN)C(=O)N[C@@H](Cc2cn(CC(=O)O)c3ccccc23)C(=O)N1C [Example 1060] ({CH2CO}-Y[NMeA]NP[Dap](X80)L[Hyp]W[Dab][Trp(1-CH2COOH)][NMeNle][NMeNle]LCG-NH2; thioether N-14) | 1.1 nM
CCCC[C@H]1C(=O)N(C)[C@@H](CCCC)C(=O)N[C@@H](CC(C)C)C(=O)N[C@H](C(=O)NCC(N)=O)CSCC(=O)N[C@@H](Cc2ccc(O)cc2)C(=O)N(C)[C@@H](C)C(=O)N[C@@H](CC(N)=O)C(=O)N2CCC[C@H]2C(=O)N[C@@H](CNC(=S)Nc2ccc3c(c2)Cc2ccccc2-3)C(=O)N[C@@H](CC(C)C)C(=O)N2C[C@H](O)C[C@H]2C(=O)N[C@@H](Cc2c[nH]c3ccccc23)C(=O)N[C@@H](CCNC(=S)Nc2ccc3c(c2)Cc2ccccc2-3)C(=O)N[C@@H](Cc2cn(CC(=O)O)c3ccccc23)C(=O)N1C [Example 2007] ({CH2CO}-Y[NMeA]NP[Dap](X1)L[Hyp]W[Dab](X1)[Trp(1-CH2COOH)][NMeNle][NMeNle]LCG-NH2; thioether N-14) | 13.3 nM
CCCC[C@H]1C(=O)N(C)[C@@H](CCCC)C(=O)N[C@@H](CC(C)C)C(=O)N[C@H](C(=O)NCC(N)=O)CSCC(=O)N[C@@H](Cc2ccc(O)cc2)C(=O)N(C)[C@@H](C)C(=O)N[C@@H](CC(N)=O)C(=O)N2CCC[C@H]2C(=O)N[C@@H](CNC(=O)Nc2c(F)cc(F)cc2F)C(=O)N[C@@H](CC(C)C)C(=O)N2C[C@H](O)C[C@H]2C(=O)N[C@@H](Cc2c[nH]c3ccccc23)C(=O)N[C@@H](CCNC(=O)Nc2c(C)cccc2Cl)C(=O)N[C@@H](Cc2cn(CC(=O)O)c3ccccc23)C(=O)N1C [Example 1114] ({CH2CO}-Y[NMeA]NP[Dap]([CO-X90])L[Hyp]W[Dab]([CO-X51])[Trp(1-CH2COOH)][NMeNle][NMeNle]LCG-NH2; thioether N-14) | 2.5 nM
CCCC[C@H]1C(=O)N(C)[C@@H](CCCC)C(=O)N[C@@H](CC(C)C)C(=O)N[C@H](C(=O)NCC(N)=O)CSCC(=O)N[C@@H](Cc2ccc(O)cc2)C(=O)N(C)[C@@H](C)C(=O)N[C@@H](CC(N)=O)C(=O)N2CCC[C@H]2C(=O)N[C@@H](CNC(=O)c2ccc3ccccc3c2)C(=O)N[C@@H](CC(C)C)C(=O)N2C[C@H](O)C[C@H]2C(=O)N[C@@H](Cc2c[nH]c3ccccc23)C(=O)N[C@@H](CCNC(=O)c2ccc3ccccc3c2)C(=O)N[C@@H](Cc2cn(CC(=O)OC)c3ccccc23)C(=O)N1C [Example 3009] ({CH2CO}-Y[NMeA]NP[Dap](2Naphthoyl)L[Hyp]W[Dab](2Naphthoyl)[Trp(1-CH2CO2Me)][NMeNle][NMeNle]LCG-NH2; thioether N-14) | 9 nM
CCCC[C@H]1C(=O)N(C)[C@@H](CCCC)C(=O)N[C@@H](CC(C)C)C(=O)N[C@H](C(=O)NCC(N)=O)CSCC(=O)N[C@@H](Cc2ccc(O)cc2)C(=O)N(C)[C@@H](C)C(=O)N[C@@H](CC(N)=O)C(=O)N2CCC[C@H]2C(=O)N[C@@H](CNC(=S)Nc2ccc3cc[nH]c3c2)C(=O)N[C@@H](CC(C)C)C(=O)N2C[C@H](O)C[C@H]2C(=O)N[C@@H](Cc2c[nH]c3ccccc23)C(=O)N[C@@H](CCNC(=S)Nc2ccc3cc[nH]c3c2)C(=O)N[C@@H](Cc2cn(CC(=O)O)c3ccccc23)C(=O)N1C [Example 3068] ({CH2CO}-Y[NMeA]NP[Dap](X7)L[Hyp]W[Dab](X7)[Trp(1-CH2COOH)][NMeNle][NMeNle]LCG-NH2; thioether N-14) | 2 nM
CCCC[C@H]1C(=O)N(C)[C@@H](CCCC)C(=O)N[C@@H](CC(C)C)C(=O)N[C@H](C(=O)NCC(N)=O)CSCC(=O)N[C@@H](Cc2ccc(O)cc2)C(=O)N(C)[C@@H](C)C(=O)N[C@@H](CC(N)=O)C(=O)N2CCC[C@H]2C(=O)N[C@@H](CNC(=S)Nc2ccc(NC(=O)OC(C)(C)C)cc2)C(=O)N[C@@H](CC(C)C)C(=O)N2C[C@H](O)C[C@H]2C(=O)N[C@@H](Cc2c[nH]c3ccccc23)C(=O)N[C@@H](CCN)C(=O)N[C@@H](Cc2cn(CC(=O)O)c3ccccc23)C(=O)N1C [Example 1040] ({CH2CO}-Y[NMeA]NP[Dap](X65)L[Hyp]W[Dab][Trp(1-CH2COOH)][NMeNle][NMeNle]LCG-NH2; thioether N-14) | 3.9 nM
CCCC[C@H]1C(=O)N(C)[C@@H](CCCC)C(=O)N[C@@H](CC(C)C)C(=O)N[C@H](C(=O)NCC(N)=O)CSCC(=O)N[C@@H](Cc2ccc(O)cc2)C(=O)N(C)[C@@H](C)C(=O)N[C@@H](CC(N)=O)C(=O)N2CCC[C@H]2C(=O)N[C@@H](CNC(=O)Nc2ccc(Oc3ccccc3)cc2)C(=O)N[C@@H](CC(C)C)C(=O)N2C[C@H](O)C[C@H]2C(=O)N[C@@H](Cc2c[nH]c3ccccc23)C(=O)N[C@@H](CCN)C(=O)N[C@@H](Cc2cn(CC(=O)O)c3ccccc23)C(=O)N1C [Example 1070] ({CH2CO}-Y[NMeA]NP[Dap]([CO-X29])L[Hyp]W[Dab][Trp(1-CH2COOH)][NMeNle][NMeNle]LCG-NH2; thioether N-14) | 5.5 nM
